From ChEMBL document CHEMBL1201862, “PubChem BioAssay data set” (2004)
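A five-concentration, 48-hour dose response in 96-well plates underlies each endpoint, interpolated linearly between surrounding concentrations. Abbreviation: GI50, concentration required for 50% inhibition of growth.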 The source made the active and inactive calls. No stated cut-off is given here; in the data, active = GI50 up to about 1.1 µM and inactive = higher.

Experiments:
Experiment in all cases: NCI tumour cell line growth inhibition, 48 h
[1] = test system: MDA-N
[2] = test system: KM12
[3] = test system: NCI-H522
[4] = test system: KM-20L2
[5] = test system: COLO 205
[6] = test system: SNB-19
[7] = test system: IGROV-1
[8] = test system: CAKI-1
[9] = test system: OVCAR-3
[10] = test system: SNB-75
[11] = test system: MOLT-4
[12] = test system: DU-145
[13] = test system: CCRF-CEM
[14] = test system: NCI-H226
[15] = test system: OVCAR-5
[16] = test system: SF-539
[17] = test system: LOX IMVI
[18] = test system: SK-MEL-28
[19] = test system: HCT-116

Compound	GI50 [1]	GI50 [2]	GI50 [3]	GI50 [4]	GI50 [5]	GI50 [6]	GI50 [7]	GI50 [8]	GI50 [9]	GI50 [10]	GI50 [11]	GI50 [12]	GI50 [13]	GI50 [14]	GI50 [15]	GI50 [16]	GI50 [17]	GI50 [18]	GI50 [19]
CC1=C(C(=O)Nc2ccccc2C)C(c2ccc(C3C(C(=O)Nc4ccccc4C)=C(C)NC(C)=C3C(=O)Nc3ccccc3C)cc2)C(C(=O)Nc2ccccc2C)=C(C)N1	5.6 µM (inactive)	2.16 µM (inactive)	1.89 µM (inactive)	3.74 µM (inactive)	3.7 µM (inactive)	11.9 µM (inactive)	3.16 µM (inactive)	7.1 µM (inactive)	6.67 µM (inactive)	14.4 µM (inactive)	2.48 µM (inactive)	15.9 µM (inactive)	1.95 µM (inactive)	14.1 µM (inactive)	14.1 µM (inactive)	4.44 µM (inactive)	1.63 µM (inactive)	2.04 µM (inactive)	2.21 µM (inactive)
Nc1cccc(C(=O)/C=C/c2ccccc2O)c1	–	> 100 µM (inactive)	59.4 µM (inactive)	> 100 µM (inactive)	> 100 µM (inactive)	> 100 µM (inactive)	> 100 µM (inactive)	> 100 µM (inactive)	> 100 µM (inactive)	13.2 µM (inactive)	> 100 µM (inactive)	–	27.5 µM (inactive)	> 100 µM (inactive)	> 100 µM (inactive)	> 100 µM (inactive)	31.4 µM (inactive)	> 100 µM (inactive)	> 100 µM (inactive)
[C-]#[N+][C@@H]1C2[C@H](CC[C@@]1(C)O)C(=C)CC[C@@H]2[C@@]1(C)CC[C@H](Cl)C(C)(C)O1 (some centres not stated)	–	3.53 µM (inactive)	4.42 µM (inactive)	6.68 µM (inactive)	3.2 µM (inactive)	7.1 µM (inactive)	3.49 µM (inactive)	4.82 µM (inactive)	1.31 µM (inactive)	7.87 µM (inactive)	–	–	2.77 µM (inactive)	4.46 µM (inactive)	–	6.67 µM (inactive)	3.95 µM (inactive)	26.3 µM (inactive)	2.23 µM (inactive)
CCC12C=C(C(=O)OC)N3c4ccccc4C4CCN(CCC1)C2C43 (configuration not stated)	–	48.3 µM (inactive)	75.7 µM (inactive)	19.1 µM (inactive)	31.9 µM (inactive)	72.4 µM (inactive)	> 100 µM (inactive)	35.6 µM (inactive)	> 100 µM (inactive)	30.2 µM (inactive)	66.8 µM (inactive)	–	> 100 µM (inactive)	25.3 µM (inactive)	40.9 µM (inactive)	> 100 µM (inactive)	59.4 µM (inactive)	95.7 µM (inactive)	68.7 µM (inactive)
CC1CC(=O)Nc2ccccc2N1C(=O)CN1CCC(CCCCN(C)C)CC1 (configuration not stated)	–	> 100 µM (inactive)	> 100 µM (inactive)	> 100 µM (inactive)	> 100 µM (inactive)	> 100 µM (inactive)	> 100 µM (inactive)	> 100 µM (inactive)	> 100 µM (inactive)	> 100 µM (inactive)	> 100 µM (inactive)	–	> 100 µM (inactive)	> 100 µM (inactive)	> 100 µM (inactive)	> 100 µM (inactive)	> 100 µM (inactive)	> 100 µM (inactive)	> 100 µM (inactive)
COc1ccc2nc3cc(Cl)ccc3c(NC(C)CCCN(CCCl)CCCl)c2c1 (configuration not stated)	–	0.52 µM (active)	0.55 µM (active)	0.356 µM (active)	0.397 µM (active)	0.74 µM (active)	0.317 µM (active)	0.785 µM (active)	0.853 µM (active)	1.42 µM (inactive)	0.054 µM (active)	–	0.0612 µM (active)	0.387 µM (active)	0.929 µM (active)	0.55 µM (active)	0.176 µM (active)	5 µM (inactive)	0.199 µM (active)
